# Experimental data as given in patent US8563553B2, “Compounds and compositions as protein kinase inhibitors” (Novartis AG, priority 2009, dated 2013).
# Biological target: b-Raf(V600E) (Homo sapiens (Human), UniProt P15056, V600E)
# Assay: Raf/Mek Amplified Luminescence Proximity Homogeneous Assay (Alpha Screen)
# Format: biochemical
# Details: b-Raf(V600E) approximately 4 pM; biotinylated Mek, kinase dead approximately 10 nM; ATP 10 μM; pre-incubation 60 minutes; reaction 3 hours at room temperature; read-out: mut-B-RAF IC50
# Method: Raf/Mek Amplified Luminescence Proximity Homogeneous Assay
# Assay buffer: 50 mM Tris, pH 7.5, 15 mM MgCl2, 0.01% Bovine Serum Albumin (BSA), 1 mM dithiothreitol (DTT) Stop buffer: 60 mM ethylenediaminetetraacetic acid (EDTA), 0.01% Tween® 20 Bead buffer: 50 mM Tris, pH 7.5, 0.01% Tween® 20 […]
# biotinylated Mek, kinase dead
# Alpha Screen detection kit (available from PerkinElmer™, #6760617R)
# Anti phospho-MEK1/2 (available from Cell Signaling Technology, Inc. #9121) 384 well assay plates (White Greiner® plates, #781207) […]
# biotinylated Mek, Kinase dead approximately 10 nM
# Pre-incubation time with compounds 60 minutes at room temperature
# Reaction time 1 or 3 hours at room temperature
# Raf and biotinylated Mek, kinase dead, were combined at 2× final concentrations in assay buffer (50 mM Tris, pH 7.5, 15 mM MgCl2, 0.01% BSA and 1 mM DTT) and dispensed 10 μl per well in assay plates (Greiner white 384 well assay plates #781207) containing 0.5 μl of 40× of a raf kinase inhibitor test compound diluted in 100% DMSO. The plate was incubated for 60 minutes at room temperature.
# The Raf kinase activity reaction was started by the addition of 10 μL per well of 2×ATP diluted in assay buffer. […] Phosphorylated product was measured using a rabbit anti-p-MEK (Cell Signaling, #9121) antibody and the Alpha Screen IgG (ProteinA) detection Kit (PerkinElmer #6760617R), by the addition of 30 μL to the well of a mixture of the antibody (1:2000 dilution) and detection beads (1:2000 dilution of both beads) in bead buffer (50 mM Tris, pH 7.5, 0.01% Tween20). The additions were carried out under dark conditions to protect the detection beads from light. A lid was placed on top of the plate and incubated for 1 hour at room temperature, then the luminescence was read on a PerkinElmer Envision instrument. The concentration of each compound for 50% inhibition (IC50) was calculated by non-linear regression using XL Fit data analysis software.
# Chain of b-Raf(V600E) (P15056 whole entry V600E): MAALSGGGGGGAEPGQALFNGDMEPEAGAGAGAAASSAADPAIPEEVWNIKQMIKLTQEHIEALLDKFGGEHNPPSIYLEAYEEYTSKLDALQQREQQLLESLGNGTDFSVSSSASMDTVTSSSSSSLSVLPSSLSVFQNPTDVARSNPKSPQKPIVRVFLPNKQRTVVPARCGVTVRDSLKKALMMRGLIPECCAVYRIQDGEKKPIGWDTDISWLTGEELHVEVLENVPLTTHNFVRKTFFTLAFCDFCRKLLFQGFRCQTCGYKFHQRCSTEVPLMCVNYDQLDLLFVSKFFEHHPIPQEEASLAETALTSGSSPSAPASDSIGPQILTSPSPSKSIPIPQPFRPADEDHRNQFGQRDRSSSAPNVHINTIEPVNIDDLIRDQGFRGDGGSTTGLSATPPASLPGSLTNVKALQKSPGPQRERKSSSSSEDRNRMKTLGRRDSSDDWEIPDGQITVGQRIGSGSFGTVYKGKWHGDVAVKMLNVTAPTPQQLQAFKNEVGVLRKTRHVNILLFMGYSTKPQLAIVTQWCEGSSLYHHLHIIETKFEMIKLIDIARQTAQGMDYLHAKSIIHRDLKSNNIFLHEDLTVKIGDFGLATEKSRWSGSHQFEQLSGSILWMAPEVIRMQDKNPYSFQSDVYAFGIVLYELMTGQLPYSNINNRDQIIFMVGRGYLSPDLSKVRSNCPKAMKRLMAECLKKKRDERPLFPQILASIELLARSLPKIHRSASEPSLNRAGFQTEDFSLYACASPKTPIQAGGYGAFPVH
row,IC50 [nM],Structure (SMILES)
1,31,"CNc1nccc(-c2[nH]c(C3CC3)nc2-c2cc(F)cc(NS(C)(=O)=O)c2Cl)n1 [Example 1BW, N-(2-Chloro-3-(2-cyclopropyl-5-(2-(methylamino)pyrimidin-4-yl)-1H-imidazol-4-yl)-5-fluorophenyl)methanesulfonamide]"
2,0.18,"COC(=O)N[C@@H](C)CNc1nccc(-c2[nH]c(C3CC3)nc2-c2cc(Cl)cc(NS(C)(=O)=O)c2Cl)n1 [Example 1X, (S)-Methyl 1-(4-(2-cyclopropyl-4-(2,5-dichloro-3-(methylsulfonamido)phenyl)-1H-imidazol-5-yl)pyrimidin-2-ylamino)propan-2-ylcarbamate]"
3,0.45,"CCCS(=O)(=O)Nc1ccc(F)c(-c2nc(C3CC3)[nH]c2-c2ccnc(NC[C@H](C)NC(=O)OC)n2)c1Cl [Example 1AF, Methyl (2S)-1-(4-(4-(2-chloro-6-fluoro-3-(propylsulfonamido)phenyl)-2-cyclopropyl-1H-imidazol-5-yl)pyrimidin-2-ylamino)propan-2-ylcarbamate]"
4,5,"CCCS(=O)(=O)Nc1cc(F)cc(-c2nc(C3CC3)[nH]c2-c2ccnc(NC(C)C)n2)c1Cl [Example 1AU, N-(2-Chloro-3-(2-cyclopropyl-5-(2-(isopropylamino)pyrimidin-4-yl)-1H-imidazol-4-yl)-5-fluorophenyl)propane-1-sulfonamide]"
5,5,"CCCNc1nccc(-c2[nH]c(C3CC3)nc2-c2cc(F)cc(NS(C)(=O)=O)c2Cl)n1 [Example 1AP, N-(2-Chloro-3-(2-cyclopropyl-5-(2-(propylamino)pyrimidin-4-yl)-1H-imidazol-4-yl)-5-fluorophenyl)methanesulfonamide]"
6,0.89,"CCCS(=O)(=O)Nc1cc(Cl)cc(-c2[nH]c(C3CC3)nc2-c2ccnc(NC[C@H](C)NC(=O)OC)n2)c1F [Example 1W, (S)-Methyl 1-(4-(5-(5-chloro-2-fluoro-3-(propylsulfonamido)phenyl)-2-cyclopropyl-1H-imidazol-4-yl)pyrimidin-2-ylamino)propan-2-ylcarbamate]"
7,0.13,"CCCS(=O)(=O)Nc1cccc(-c2nc(C3CC3)[nH]c2-c2ccnc(NC[C@H](C)NC(=O)OC)n2)c1Cl [Example 4A-3, (S)-methyl 1-(4-(4-(2-chloro-3-(propylsulfonamido)phenyl)-2-cyclopropyl-1H-imidazol-5-yl)pyrimidin-2-ylamino)propan-2-ylcarbamate]"
8,0.43,"CCS(=O)(=O)Nc1cc(F)cc(-c2nc(C3CC3)[nH]c2-c2ccnc(NC[C@H](C)NC(=O)OC)n2)c1Cl [Example 1AD, (S)-Methyl 1-(4-(4-(2-chloro-3-(ethylsulfonamido)-5-fluorophenyl)-2-cyclopropyl-1H-imidazol-5-yl)pyrimidin-2-ylamino)propan-2-ylcarbamate]"

# The next lines start with the molecule.
row,Structure (SMILES),IC50 [nM]
1,"COC(=O)N[C@@H](C)CNc1nccc(-c2[nH]c(C(C)(C)C)nc2-c2cc(C)cc(NS(=O)(=O)C(C)C)c2)n1 [Example 1Q, (S)-Methyl 1-(4-(2-tert-butyl-4-(3-methyl-5-(1-methylethylsulfonamido)phenyl)-1H-imidazol-5-yl)pyrimidin-2-ylamino)propan-2-ylcarbamate]",3.12
2,"CC(C)(C)c1nc(-c2cccc(NS(C)(=O)=O)c2Cl)c(-c2ccnc(N)n2)[nH]1 [Example 1BL, N-(3-(5-(2-Aminopyrimidin-4-yl)-2-tert-butyl-1H-imidazol-4-yl)-2-chlorophenyl)methanesulfonamide]",55
3,"COC(=O)N[C@@H](C)CNc1nccc(-c2[nH]c(C(C)(C)C)nc2-c2cc(Cl)cc(NS(=O)(=O)C3CC3)c2C)n1 [Example 1N, (S)-Methyl 1-(4-(2-tert-butyl-4-(5-chloro-3-(cyclopropanesulfonamido)-2-methylphenyl)-1H-imidazol-5-yl)pyrimidin-2-ylamino)propan-2-ylcarbamate]",204
4,"CCCS(=O)(=O)Nc1cccc(-c2nc(C3CC3)[nH]c2-c2ccnc(NCCC(N)=O)n2)c1F [Example 4H, 3-(4-(2-Cyclopropyl-4-(2-fluoro-3-(propylsulfonamido)phenyl)-1H-imidazol-5-yl)pyrimidin-2-ylamino)propanamide]",2
5,"COC(=O)N[C@@H](C)CNc1nccc(-c2[nH]c(C3CC3)nc2-c2cc(Cl)cc(NS(=O)(=O)C(C)C)c2)n1 [Example 1M, (S)-Methyl 1-(4-(4-(3-chloro-5-(1-methylethylsulfonamido)phenyl)-2-cyclopropyl-1H-imidazol-5-yl)pyrimidin-2-ylamino)propan-2-ylcarbamate]",0.63
6,"COC(=O)N[C@@H](C)CNc1nccc(-c2[nH]c(C(C)(C)C)nc2-c2cc(Cl)cc(NS(=O)(=O)C(C)C)c2)n1 [Example 1J, (S)-Methyl 1-(4-(2-tert-butyl-4-(3-chloro-5-(1-methylethylsulfonamido)phenyl)-1H-imidazol-5-yl)pyrimidin-2-ylamino)propan-2-ylcarbamate]",1.35
7,"CS(=O)(=O)Nc1cccc(-c2nc(C3CC3)[nH]c2-c2ccnc(NCC3(C#N)CC3)n2)c1Cl [Example 2G, N-(2-Chloro-3-(5-(2-((1-cyanocyclopropyl)methylamino)pyrimidin-4-yl)-2-cyclopropyl-1H-imidazol-4-yl)phenyl)methanesulfonamide]",35
8,"COC(=O)N[C@@H](C)CNc1nccc(-c2[nH]c(C(C)(C)C)nc2-c2cc(NS(=O)(=O)C3CC3)c(C)c(OC)c2)n1 [Example 1L, (S)-Methyl 1-(4-(2-tert-butyl-4-(3-(cyclopropanesulfonamido)-5-methoxy-4-methylphenyl)-1H-imidazol-5-yl)pyrimidin-2-ylamino)propan-2-ylcarbamate]",157
9,"COC(=O)N[C@@H](C)CNc1nccc(-c2[nH]c(C(C)(C)C)nc2-c2cc(Cl)cc(NS(C)(=O)=O)c2)n1 [Example 1C, (S)-Methyl 1-(4-(2-tert-butyl-4-(3-chloro-5-(methylsulfonamido)phenyl)-1H-imidazol-5-yl)pyrimidin-2-ylamino)propan-2-ylcarbamate]",0.32
10,"COC(=O)N[C@@H](C)CNc1nccc(-c2nc(C3(C)CC3)[nH]c2-c2cccc(NS(C)(=O)=O)c2Cl)n1 [Example 1AO, (S)-Methyl 1-(4-(5-(2-chloro-3-(methylsulfonamido)phenyl)-2-(1-methylcyclopropyl)-1H-imidazol-4-yl)pyrimidin-2-ylamino)propan-2-ylcarbamate]",1
11,"COC(=O)N[C@@H](C)CNc1nccc(-c2[nH]c(C3CC3)nc2-c2cccc(NS(C)(=O)=O)c2Cl)n1 [Example 1T, (S)-Methyl 1-(4-(4-(2-chloro-3-(methylsulfonamido)phenyl)-2-cyclopropyl-1H-imidazol-5-yl)pyrimidin-2-ylamino)propan-2-ylcarbamate]",0.47
12,"CNc1nccc(-c2[nH]c(C3CC3)nc2-c2cccc(NS(C)(=O)=O)c2F)n1 [Example 3A-2, N-(3-(2-cyclopropyl-5-(2-(methylamino)pyrimidin-4-yl)-1H-imidazol-4-yl)-2-fluorophenyl)methanesulfonamide]",578
13,"COC(=O)N[C@@H](C)CNc1nccc(-c2nc(C(C)(C)C)[nH]c2-c2cc(NS(=O)(=O)C(C)C)cc(OC(F)F)c2)n1 [Example 1P, (S)-Methyl 1-(4-(2-tert-butyl-5-(3-(difluoromethoxy)-5-(1-methylethylsulfonamido)phenyl)-1H-imidazol-4-yl)pyrimidin-2-ylamino)propan-2-ylcarbamate]",11.2
14,"CC(C)(C)c1nc(-c2cc(F)cc(NS(C)(=O)=O)c2Cl)c(-c2ccnc(N)n2)[nH]1 [Example 1BJ, N-(3-(5-(2-Aminopyrimidin-4-yl)-2-tert-butyl-1H-imidazol-4-yl)-2-chloro-5-fluorophenyl)methanesulfonamide]",5
15,"Nc1nccc(-c2[nH]c(C3CC3)nc2-c2cccc(NS(=O)(=O)c3c(F)cccc3F)c2Cl)n1 [Example 2H, N-(3-(5-(2-aminopyrimidin-4-yl)-2-cyclopropyl-1H-imidazol-4-yl)-2-chlorophenyl)-2,6-difluorobenzenesulfonamide]",1
16,"CCCS(=O)(=O)Nc1cccc(-c2nc(C(C)(C)C)[nH]c2-c2ccnc(NC[C@H](C)NC(=O)OC)n2)c1F [Example 4B, (S)-Methyl 1-(4-(2-tert-butyl-4-(2-fluoro-3-(propylsulfonamido)phenyl)-1H-imidazol-5-yl)pyrimidin-2-ylamino)propan-2-ylcarbamate]",0.38
17,"CC1(c2nc(-c3cc(Cl)cc(NS(C)(=O)=O)c3F)c(-c3ccnc(NCCC#N)n3)[nH]2)CC1 [Example 1BB, N-(5-Chloro-3-(5-(2-(2-cyanoethylamino)pyrimidin-4-yl)-2-(1-methylcyclopropyl)-1H-imidazol-4-yl)-2-fluorophenyl)methanesulfonamide]",0.11
